Experiments:
[1] = target: T1, human orexin-2 receptor (OX2R) (Homo sapiens, UniProt O43614); test: In vitro orexin antagonism assay: intracellular calcium measurement (FLIPR), orexin-A 3 nM as agonist; type: cell-based; settings: for IC50: first value of IC50/Kb cell; for inhibition at 1 µM: read-out: OX2R, % Inh. @ 1 uM; for Kb: second value of IC50/Kb cell
T1 construct: expressed in transfected cells; host or cells: CHO cells (G418 selection)
T1 sequence (O43614 1-444): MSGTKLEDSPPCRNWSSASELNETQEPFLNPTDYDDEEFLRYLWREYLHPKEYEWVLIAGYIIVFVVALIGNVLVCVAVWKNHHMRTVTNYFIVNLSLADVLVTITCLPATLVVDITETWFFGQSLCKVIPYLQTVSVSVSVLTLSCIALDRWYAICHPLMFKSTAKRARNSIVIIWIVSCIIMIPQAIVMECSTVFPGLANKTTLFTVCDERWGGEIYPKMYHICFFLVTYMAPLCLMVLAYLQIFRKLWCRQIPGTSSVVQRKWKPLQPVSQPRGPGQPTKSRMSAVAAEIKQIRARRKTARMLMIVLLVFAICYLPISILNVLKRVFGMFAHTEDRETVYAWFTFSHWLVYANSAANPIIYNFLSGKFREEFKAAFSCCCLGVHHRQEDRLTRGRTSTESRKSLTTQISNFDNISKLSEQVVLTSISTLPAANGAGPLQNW
Description: Antagonistic activities on both orexin receptors have been measured for each example compound using the following procedure:
(§1) In Vitro Orexin Antagonism Measurement Assay: Intracellular Calcium Measurements:
(§2) Chinese hamster ovary (CHO) cells expressing the human […] and the human orexin-2 receptor, respectively, are grown in culture medium (Ham F-12 with L-Glutamine) containing 300 μg/mL G418, 100 U/mL penicillin, 100 μg/mL streptomycin and 10% heat inactivated fetal calf serum (FCS). The cells are seeded at 20,000 cells/well into 384-well black clear bottom sterile plates (Greiner). The seeded plates are incubated overnight at 37° C. in 5% 002. Human orexin-A as an agonist is prepared as 1 mM stock solution in MeOH: water (1:1), diluted in HBSS containing 0.1% bovine serum albumin (BSA), NaHCO3: 0.375 g/L and 20 mM HEPES for use in the assay at a final concentration of 3 nM.
(§3) Antagonists are prepared as 10 mM stock solution in DMSO, then diluted in 384-well plates using DMSO followed by a transfer of the dilutions into in HBSS containing 0.1% bovine serum albumin (BSA), NaHCO3: 0.375 g/L and 20 mM HEPES. On the day of the assay, 50 μL of staining buffer (HBSS containing 1% FCS, 20 mM HEPES, NaHCO3: 0.375 g/L, 5 mM probenecid (Sigma) and 3 μM of the fluorescent calcium indicator fluo-4 AM (1 mM stock solution in DMSO, containing 10% pluronic) is added to each well. The 384-well cell-plates are incubated for 50 min at 37° C. in 5% CO2 followed by equilibration at RT for 30 min before measurement.
(§4) Within the Fluorescent Imaging Plate Reader (FLIPR Tetra, Molecular Devices), antagonists are added to the plate in a volume of 10 μL/well, incubated for 120 min and finally 10 μL/well of agonist is added. Fluorescence is measured for each well at 1 second intervals, and the height of each fluorescence peak is compared to the height of the fluorescence peak induced by 3 nM orexin-A with vehicle in place of antagonist. The IC50 value (the concentration of compound needed to inhibit 50% of the agonistic response) is determined and may be normalized using the obtained IC50 value of an on-plate reference compound. Optimized conditions were achieved by adjustment of pipetting speed and cell splitting regime. The calculated IC50values may fluctuate depending on the daily cellular assay performance. Fluctuations of this kind are known to those skilled in the art. In the case where IC50values have been determined several times for the same compound, the geometric mean has been given.

[2] = target: T2, Orexin type 1 (OX1R) receptor (Homo sapiens, UniProt O43613); test: as above; type: cell-based; settings: for inhibition at 1 µM: read-out: OX1R, % Inh. @ 1 uM; for IC50: first value of IC50/Kb cell; for Kb: second value of IC50/Kb cell
T2 construct: expressed in transfected cells; host or cells: CHO cells (G418 selection)
T2 sequence (O43613 1-425): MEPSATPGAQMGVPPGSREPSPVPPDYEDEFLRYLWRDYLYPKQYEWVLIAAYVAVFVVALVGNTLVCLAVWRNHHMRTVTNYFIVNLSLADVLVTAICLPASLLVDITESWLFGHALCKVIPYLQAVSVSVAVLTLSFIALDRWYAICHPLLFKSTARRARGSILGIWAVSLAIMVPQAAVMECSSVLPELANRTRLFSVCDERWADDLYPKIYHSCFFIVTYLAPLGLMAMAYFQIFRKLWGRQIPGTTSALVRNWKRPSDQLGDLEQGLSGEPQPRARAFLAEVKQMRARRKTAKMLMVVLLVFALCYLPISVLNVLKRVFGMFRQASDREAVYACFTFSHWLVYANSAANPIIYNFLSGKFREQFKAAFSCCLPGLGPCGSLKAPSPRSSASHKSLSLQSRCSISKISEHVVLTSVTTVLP
Description: as §1, §2, §3
as §4, with “art.” for “art. In the case where IC50values have been determined several times for the same compound, the geometric mean has been given.”

SMILES | IC50 [1] | inhibition at 1 µM [1] | Kb [1] | inhibition at 1 µM [2] | IC50 [2] | Kb [2]
O=C(c1c(-c2ccccc2)nc2ccc(F)cn12)N1CCC[C@H]1Cn1cc(-c2ccc(F)cn2)cn1 [Example 84] | 400 nM | 58% | 70 nM | 32% |  | 
CCc1cnc(NC[C@@H]2CCCN2C(=O)c2c(-c3ccccc3)nn3ccccc23)nc1 [Example 15] |  |  |  |  | 180 nM | 38 nM
O=C(c1nn2c(c1-c1ccccc1)COCC2)N1C2CCC1(COc1ccc(C(F)(F)F)cn1)CC2 [Example 159] |  | 15% |  | 86% | 48 nM | 10 nM
O=C(c1c(-c2ccccc2F)nn2c1COCC2)N1CC[C@H]1Cn1ccc(-c2ccc(F)cc2)n1 [Example 100] |  | 19% |  | -2% |  | 
C[C@@H]1CCCN(C(=O)c2c(-c3ccccc3)nn3ccccc23)[C@@H]1CNc1ncc(F)cn1 [Example 22] |  | -3% |  | 82.2% | 10 nM | 2 nM
O=C(c1c(-c2ccccc2)nc2cc(C(F)(F)F)ccn12)N1[C@H](Cn2ccc(-c3ccc(F)cc3)n2)C[C@@H]2C[C@@H]21 [Example 98] |  | 35% |  | 48% |  | 
O=C(c1c(-c2ccccc2)nn2c1COCC2)N1CCC[C@H]1Cn1cc(-c2ccccc2)cn1 [Example 86] |  | 42% |  | 56% | 1300 nM | 280 nM
O=C(c1c(-c2ccccc2)nc2ccccn12)N1CCCC[C@H]1COc1ccc(C(F)(F)F)cn1 [Example 45] |  | 38.8% |  | 98.7% | 4 nM | 0.9 nM
O=C(c1c(-c2ccccc2)nc2cnccn12)N1CCC[C@H]1CNc1ccc(C(F)(F)F)cn1 [Example 36] |  | 14.7% |  | 53.7% |  | 
O=C(c1c(-c2ccccc2F)nn2c1COCC2)N1CC[C@H]1Cn1ccc(-c2ccc(F)cn2)n1 [Example 104] |  | 14% |  | 8% |  | 
O=C(c1c(-c2ccccc2)nc2ncccn12)N1CCC[C@H]1Cn1ccc(-c2ccccc2)n1 [Example 35] |  | 23.7% |  | 54.8% |  | 
O=C(c1c(-c2ccccc2)nc2ccccn12)N1CCC[C@H]1CNc1ccc(F)cn1 [Example 33] |  | 0.7% |  | 4.8% |  | 
O=C(c1c(-c2ccccc2)nn2c1COCC2)N1CCC[C@H]1Cn1cc(-c2ccccn2)cn1 [Example 77] |  | 23% |  | 22% |  | 
O=C(c1c(-c2ccccc2)nc2cc(F)ccn12)N1CCC[C@H]1COc1ccc(C(F)(F)F)cn1 [Example 52] |  | 43.3% |  | 79.2% | 327 nM | 69 nM
O=C(c1nn2ccccc2c1-c1ccccc1)N1CCC[C@H]1COc1ccc(C(F)(F)F)cn1 [Example 28] |  | 52.5% |  | 98.4% | 4 nM | 1 nM
O=C(c1c(-c2ccccc2)nn2c1COCC2)N1CCC[C@H]1CNc1ccc(C(F)(F)F)cn1 [Example 2] |  |  |  |  | 120 nM | 
CCc1cnc(NC[C@@H]2[C@H](C)CCCN2C(=O)c2c(-c3ccccc3)nn3c2COCC3)nc1 [Example 5] |  |  |  |  | 140 nM | 
O=C(c1c(-c2ccccc2)nc2ccccn12)N1CCC[C@H]1COc1ccc(C(F)(F)F)cn1 [Example 18] |  |  |  |  | 290 nM | 
C[C@@H]1CCCN(C(=O)c2c(-c3ccccc3)nn3ccccc23)[C@@H]1CNc1ccc(C(F)(F)F)cn1 [Example 6] |  |  |  |  |  | 2 nM

Other lines, results leading:

IC50 [1] | inhibition at 1 µM [1] | Kb [1] | inhibition at 1 µM [2] | IC50 [2] | Kb [2] | SMILES
 | 74% |  | 79% | 120 nM | 25 nM | O=C(c1nc2n(c1-c1ccccn1)CCOC2)N1CCC[C@H]1Cn1cc(-c2ccc(F)cn2)cn1 [Example 218]
 | 8% |  | 12% |  |  | O=C(c1c(-c2ccccc2)nn2c1COCC2)N1CCOC[C@H]1COc1ccc(C(F)(F)F)cn1 [Example 113]
 | 29% |  | 5% |  |  | O=C(c1c(-c2ccccc2)nc2ccc(F)cn12)N1CC[C@H]1Cn1ccc(-c2ccc(F)cn2)n1 [Example 105]
 | 8% |  | 64% |  |  | O=C(c1nn2c(c1-c1ccccn1)OCCC2)N1CCC[C@H]1Cc1nc(-c2ccccn2)no1 [Example 199]
 | 0% |  | 21% |  |  | O=C(c1nc2n(c1-c1ccccn1)CCOC2)N1CCC[C@H]1Cc1nc(-c2ccc(F)cn2)no1 [Example 220]
 | 19% |  | 10% |  |  | O=C(c1c(-c2ccccc2)nn2c1COCC2)N1CCC[C@H]1Cc1nc(-c2ccc(F)cn2)no1 [Example 116]
 | 20% |  | 82% | 326 nM | 69 nM | C[C@@]1(COc2cnc(C(F)(F)F)cn2)CCCN1C(=O)c1nn2cccnc2c1-c1ccccc1 [Example 167]
24 nM | 98% | 4 nM | 99% | 12 nM | 3 nM | O=C(c1c(-c2ccccn2)nn2ccccc12)N1CCC[C@H]1Cn1ccc(-c2ccc(F)cn2)n1 [Example 205]
 | 12% |  | 64% |  |  | O=C(c1nc2n(c1-c1ccccn1)CCOC2)N1CCC[C@H]1Cn1ccc(-c2ccccn2)n1 [Example 215]
 | 32% |  | 45% |  |  | O=C(c1c(-c2ccccc2)nc2ccc(F)cn12)N1[C@H](Cn2ccc(-c3ccc(F)cn3)n2)C[C@@H]2C[C@@H]21 [Example 109]
 | 42% |  | 69% | 280 nM | 60 nM | O=C(c1c(-c2ccccc2)nc2cc(C(F)(F)F)ccn12)N1[C@H](Cn2ccc(-c3ccc(F)cn3)n2)C[C@@H]2C[C@@H]21 [Example 110]
 | 40% |  | 93% | 12 nM | 2 nM | O=C(c1nn2ccccc2c1-c1ccccn1)N1CCC[C@H]1Cc1nc(-c2ccc(F)cn2)no1 [Example 176]
 | 10% |  | 42% |  |  | O=C(c1nc2n(c1-c1ccccn1)CCOC2)N1CCC[C@H]1COc1ccc(C(F)(F)F)cn1 [Example 184]
 | 61% |  | 94% | 16 nM | 3 nM | O=C(c1nn2cccnc2c1-c1ccccn1)N1CCC[C@H]1Cn1ccc(-c2ccccn2)n1 [Example 185]
 | 6% |  | 14% |  |  | O=C(c1c(-c2ccccc2)nn2ccccc12)N1CCOC[C@H]1COc1ccc(C(F)(F)F)cn1 [Example 114]
